The test system of one assay is S. aureus (Wood 46). Briefly: Transmission electron microscopy of treated bacteria. Format: cell-based, Staphylococcus aureus. The source says:
(§1) Transmission electron microscopy (TEM) was applied to examine the ultrastructural changes in P. aeruginosa (PAO1), S. aureus (Wood 46) and E. coli (NCTC 10418) induced after treatment with GA and LL-37. […] This critical alteration in the outer membrane of E. coli has previously been described as a disintegration of the outer membrane into micelles and vesicle-like structures (Meincken, M., D. L. Holroyd, and M. Rautenbach, Atomic force microscopy study of the effect of antimicrobial peptides on the cell envelope of Escherichia coli. Antimicrob Agents Chemother, 2005. 49(10): p. 4085-92). […] After incubation with LL-37 and GA, we found burst cells, but this observation was most significant after treatment with LL-37 (FIG. 9). Scale bar, 0.5 μm. Experiments were performed as 2 replicates.

The subject of assay [1] is S. aureus (Wood 46, NCTC 7121). Kind of assay: Antimicrobial susceptibility testing by flow cytometry-based assay (LIVE/DEAD BacLight, Syto9/PI). Format: cell-based, Staphylococcus aureus. The settings on record: 30 minutes. As to the method:
(§2) E. coli (strain NCTC 10418), P. aeruginosa (Strain PAO1) and S. aureus (Wood 46, NCTC 7121) cells were grown in 5 mL of Todd Hewitt Broth medium (THB; Sigma-Aldrich). Bacteria were cultivated at 37° C. for 15 h in a 15 mL tube to obtain late-log phase cultures. Bacterial cultures were pelleted at 3096 g for 10 minutes; the supernatant was discarded and bacteria were resuspended in phosphate-buffered saline (PBS) supplemented with 40 mg/ml human albumin to mimic chemical properties of blood. Bacteria were diluted to a standardized inoculum of 10^9 CFU/mL.
(§3) Bacteria were treated with GA, LL-37, Piperacillin/Tazobactam or Vancomycin in varying concentrations, i.e. 50, 25, 10 or 2 μg/ml, for 30 minutes. As a positive control, bacteria were treated with 7% isopropanol. Hereafter, bacteria were pelleted at 3096 g for 10 minutes; the supernatant was discarded and bacteria were resuspended in PBS. The antimicrobial effect was tested in a well-established and widely used flow cytometry-based assay (LIVE/DEAD® BacLight™ Bacterial Viability and Counting Kit (L34856), Molecular Probes/Invitrogen) according to manufacturer's manual.
(§4) For each bacteria, the flow cytometry-based assay was repeated four times.

Assay [2] relates to P. aeruginosa (Strain PAO1). The description is as above. Format: cell-based. How it is done:
as §2, §3, §4
The antibacterial effect of GA on the gram-negative strain P. aeruginosa was tested by carrying out an experiment as described in Example 1. […] Although the untreated control stained positive for PI, this seemed to be explained by the capability of intact P. aeruginosa to secrete large quantities of DNA to the extracellular milieu.

Assay [3] deals with E. coli (strain NCTC 10418). The description is as above. Format: cell-based, Escherichia coli. As to the method:
as §2, §3, §4
Flow cytometry was used to determine the antimicrobial activity of GA and LL-37. The flow cytometry diagrams show the results after treatment with 50 μg/ml LL-37, GA, piperacillin/tazobactam, 7% isopropanol and the untreated control. […] This gating strategy was primarily applied to avoid counting beads in the upper right corner of the FS-SS. […] Thus, a two-color fluorescence assay of bacterial viability, including PI and Syto9 staining, was applied. Syto9 stains all bacteria in a population, i.e. those with intact and those with damaged membranes. In contrast, propidium iodide (PI) penetrates only bacteria with damaged membranes, thereby making quantification of bacterial viability possible.

For assay [4], the system named is P. aeruginosa (PAO1). Briefly: Transmission electron microscopy of treated bacteria. It is filed as cell-based, Pseudomonas aeruginosa.
From the text: as §1

Assay [5] deals with P. aeruginosa (PAO1). Kind of assay: Antimicrobial activity in human serum and plasma (flow cytometry, PI/Syto9). The settings on record: P. aeruginosa PAO1 ~10^8 cells/ml. It is filed as cell-based, Pseudomonas aeruginosa. The source says: It has been reported that the antimicrobial activity of antimicrobial peptides are inhibited by their binding to different factors in human plasma (Wang, Y., et al., Apolipoprotein A-I binds and inhibits the human antibacterial/cytotoxic peptide LL-37. J Biol Chem, 1998. 273(50): p. 33115-8), serum and is influenced by pH and ion composition (Johansson, J., et al., Conformation-dependent antibacterial activity of the naturally occurring human peptide LL-37. J Biol Chem, 1998. 273(6): p. 3718-24). To investigate the potential of GA for systemic application, bacterial isolates of P. aeruginosa (PAO1, ˜10^8 cells/ml) were incubated with increasing concentrations of GA and compared to LL-37. Bacterial survival and enumeration was evaluated by a flow cytometry bead standard and stained with propidium iodide and Syto9 following procedures as previously described above in the antimicrobial susceptibility testing by flow cytometry-based assay. […] All experiments were performed as four replicates.

A further assay has as its system E. coli (NCTC 10418). Briefly: Transmission electron microscopy of treated bacteria. Format: cell-based, Escherichia coli.
From the text: as §1

Where [6] appears, read: within the 30 minutes of treatment.
The mark [7] stands for this setting: positive control, 7% isopropanol.

Take `CC[C@H](C)[C@H](NC(=O)[C@H](CCCCN)NC(=O)[C@H](CCC(=O)O)NC(=O)[C@H](CCCCN)NC(=O)[C@H](CO)NC(=O)[C@H](CCCCN)NC(=O)[C@H](CCCNC(=N)N)NC(=O)[C@H](Cc1ccccc1)NC(=O)[C@H](Cc1ccccc1)NC(=O)[C@H](CC(=O)O)NC(=O)CNC(=O)[C@H](CC(C)C)NC(=O)[C@@H](N)CC(C)C)C(=O)NCC(=O)N[C@@H](CCCCN)C(=O)N[C@@H](CCC(=O)O)C(=O)N[C@@H](Cc1ccccc1)C(=O)N[C@@H](CCCCN)C(=O)N[C@@H](CCCNC(=N)N)C(=O)N[C@H](C(=O)N[C@H](C(=O)N[C@@H](CCC(N)=O)C(=O)N[C@@H](CCCNC(=N)N)C(=O)N[C@H](C(=O)N[C@@H](CCCCN)C(=O)N[C@@H](CC(=O)O)C(=O)N[C@@H](Cc1ccccc1)C(=O)N[C@@H](CC(C)C)C(=O)N[C@@H](CCCNC(=N)N)C(=O)N[C@@H](CC(N)=O)C(=O)N[C@@H](CC(C)C)C(=O)N[C@H](C(=O)N1CCC[C@H]1C(=O)N[C@@H](CCCNC(=N)N)C(=O)N[C@H](C(=O)N[C@@H](CCC(=O)O)C(=O)N[C@@H](CO)C(=O)O)[C@@H](C)O)C(C)C)[C@@H](C)CC)C(C)C)[C@@H](C)CC` [LL-37]: the entries for the “ultrastructural changes (TEM, in words)” value with S. aureus (Wood 46), with P. aeruginosa (PAO1) [4] and with E. coli (NCTC 10418) were “burst cells”, “dramatically reduced number of P. aeruginosa” and “Signs of damage to the bacterial membrane”, respectively. The entries for the “antimicrobial activity (in words)” value in assay [1] and in assay [2] (setting [6]) were “more potent than Vancomycin” and “more potent than when treating bacteria with 7% isopropanol”, respectively. The “percentage of bacteria testing positive for PI” value (shortened to “percentage … for PI”) in assay [1] amounted to 31.9%; in assay [3] (50 μg/ml, 30 minutes), 17.8%. For the same compound, the decreased bacterial inoculum in assay [2] (setting [6]) is approximately 75%. Moreover, the “increased PI positivity” value in assay [2] (within the 30 minutes of treatment (FIG. 4 overview)) was approximately 50%. Moreover, in assay [3] (50 μg/ml, 30 minutes), the “percentage of bacteria testing positive for Syto-9” value (shortened to “percentage … for Syto-9”) was 75.1%. The “antimicrobial activity in human plasma and serum (in words)” value in the assay with P. aeruginosa (PAO1) [5] is on record as “retains antimicrobial activity”.

With `CN[C@H](CC(C)C)C(=O)N[C@H]1C(=O)N[C@@H](CC(N)=O)C(=O)N[C@H]2C(=O)N[C@H]3C(=O)N[C@H](C(=O)N[C@H](C(=O)O)c4cc(O)cc(O)c4-c4cc3ccc4O)[C@H](O)c3ccc(c(Cl)c3)Oc3cc2cc(c3O[C@@H]2O[C@H](CO)[C@@H](O)[C@H](O)[C@H]2O[C@H]2C[C@](C)(N)[C@H](O)[C@H](C)O2)Oc2ccc(cc2Cl)[C@H]1O` [Vancomycin], the “antimicrobial activity (in words)” value in assay [1] is “comparable to the one obtained for LL-37”.

As to `CC(C)O` [isopropanol], in assay [3] (setting [7]), the “percentage … for PI” value stood at 32.2% and the “percentage … for Syto-9” value turned out to be 61.7%.

For Piperacillin/Tazobactam, the PI positivity result in assay [2] (50 μg/ml, 30 minutes) is “about 30%”. Moreover, the “antimicrobial activity (in words)” value in assay [2] (setting [6]) is “no antimicrobial activity”. For the same compound, in assay [3] (50 μg/ml, 30 minutes), the “percentage … for PI” value is 10% and the “percentage … for Syto-9” value came to 86.8%. Moreover, the “antimicrobial activity (in words)” value in assay [3] (setting [6]) is “no antimicrobial activity”.

The record behind these values is patent US10166253B2, “Positively charged co-polymers for use as antimicrobial agents” (priority 2014, dated 2019).
